In patent US6423519B1, “Compositions and methods for inhibiting fungal growth” (GPC Biotech Inc., priority 1998, dated 2002):
In brackets after ≈: the same amount, converted by molar mass. Where two headings read alike, the source gives them in different places.

Key:
C. albicans GGPTase = target: T1, C. albicans GGPTase (Candida albicans, UniProt Q8J224+Q9Y764); assay: biochemical
T1 sequence (Q9Y764 1-398): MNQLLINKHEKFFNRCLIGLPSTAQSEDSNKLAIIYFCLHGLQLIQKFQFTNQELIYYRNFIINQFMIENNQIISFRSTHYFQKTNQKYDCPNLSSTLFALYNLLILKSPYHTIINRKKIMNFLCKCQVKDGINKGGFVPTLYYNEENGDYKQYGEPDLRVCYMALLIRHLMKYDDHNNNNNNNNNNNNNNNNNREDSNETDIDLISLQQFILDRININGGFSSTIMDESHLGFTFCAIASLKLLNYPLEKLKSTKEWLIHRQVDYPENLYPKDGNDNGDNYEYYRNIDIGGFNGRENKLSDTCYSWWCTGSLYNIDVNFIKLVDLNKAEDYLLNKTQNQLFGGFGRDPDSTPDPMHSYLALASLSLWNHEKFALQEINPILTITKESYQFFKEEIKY
T1 sequence (Q8J224 1-306): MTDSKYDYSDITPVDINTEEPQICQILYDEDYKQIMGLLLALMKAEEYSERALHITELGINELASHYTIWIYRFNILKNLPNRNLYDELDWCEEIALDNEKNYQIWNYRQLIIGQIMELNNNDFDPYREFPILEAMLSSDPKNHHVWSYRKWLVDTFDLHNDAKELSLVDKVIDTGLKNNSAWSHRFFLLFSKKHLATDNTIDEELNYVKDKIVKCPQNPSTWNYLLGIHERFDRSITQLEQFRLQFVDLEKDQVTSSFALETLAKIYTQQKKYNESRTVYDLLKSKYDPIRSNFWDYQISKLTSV
Method: Plate test compounds (10 μL per well) at predetermined concentration in 50% DMSO. For background control (blank) and reaction control (negative), add 10 μL of 200 μM GGPP and 10 μL 50% DMSO, respectively. Prepare assay buffer: 50 mM Tris, pH7.5, 20 mM KCL, 5 mM MgCl2, 5 μM ZnCl2, 0.5 mM Zw(3-14), 2 mM DTT and 0.1 mg/mL BSA.
Add 20 μL of C. albicans GGPTase and ^3H-GGPP in assay buffer to test compound. Preincubate enzyme and ^3H-GGPP with test compound for 15 minutes at room temperature. Add 20 μL C. albicans Rho in assay buffer. Incubate for 30 minutes at room temperature. Final assay conditions are 2 nM C. albicans GGPTase, 250 nM ^3H-GGPP and 250 nM C. albicans Rho.
Add 100 μL 15 mM GGPP, 50 mM Tris, pH7.0 and 2% BSA to quench reaction. Transfer reaction to Nickel chelate FlashPlate. Allow his-tagged C. albcians Rho to capture onto plate. Rinse plate 1× with 200 μL 20 mM Tris, pH7.0. Read in TOPCOUNT.

human GGTase = human GGTase (Homo sapiens, UniProt P53609); assay: Human GGTase inhibition (Hu GG); type: biochemical
Excerpt: As described below, a variety of different compounds were synthesized and tested for inhibitory activity against human and Candida GGTase. Exemplary synthesis schemes for generating prenyltransferase inhibitors useful in the methods and compositions of the present invention are shown in FIGS. 1-56. Tables 1-5 provide Structure-Activity relationship (SAR) data for several different classes of prenyltransferase inhibitors.

C. albicans = assay: Determination of minimum fungicidal concentration (MFC); type: cell-based; conditions: Candida albicans
Method: After the required time course for the MIC determination, the minimum fungicidal concentration can then be determined by plating out the entire contents of the well of the microtitre plates onto YPD or Sabourand plates. These plates are then incubated at 35° C. for 24-48 hrs. The MFC corresponds to the concentration of compound where no cellular growth is observed on the plate. For compound 99a, and MFC was calculated of 2 μg/ml.

H460 Cell Line = assay: Cytotoxicity of GGPTase inhibitors in human cells, H460 (Sulforhodamine B); type: cell-based; conditions: NCI-H460, read-out: Human cell IC50 (nM) H460
Method: (§1) (A) Plate out cells at predetermined concentration in a volume of 150 μl.
(§2) (B) Allow cells to adhere to plate for twenty four hours
(§3) (C) Add compounds to cells at predetermined concentration (62.5 μg/mL down four-fold, 8 dilutions) n=2
(§4) (D) Cells are exposed to drug for 7 days for the IMR90 Cell Line, and a period of 3 days for the H460 Cell Line.
(E) 1. H460 Cells are fixed in TCA, rinsed, stained with Sulforhodamine B stain, and the stain is solubilized for a final OD read.

IMR90 Cell Line = assay: Cytotoxicity of GGPTase inhibitors in human cells, IMR90 (MTT); type: cell-based; conditions: IMR-90, read-out: Human cell IC50 (nM) IMR90
Method: as §1, §2, §3, §4
2. IMR90 Cells have 3-{4,5-Dimethylthiazol-2-yl}-2,5-diphenyltetrazolium bromide (MTT) added to them for three hours prior to final read out. After the three hours, media and MTT are removed and MTT crystals are solubilized in 100% DMSO for final OD read.

MycCaRHO1 = assay: Prenylation state / localisation of newly synthesized MycCaRHO1 (fractionation, Western blot); type: cell-based, C. albicans; conditions: 3 μg/ml, strain DIY-BL2-058, versus mock (DMSO) treated cells
Method: To look at the effect of GGPTase I inhibitors in vivo a recombinant C. albicans strain engineered to express a Myc tagged CaRHO1 under the control of the C. albicans phosphoenolpyruvate carboxykinase 1 (PCK1) promoter is used. This promoter is repressed by glucose and derepressed by gluconeogenic carbon sources such as succinate. It should also be possible to be look at the endogenous substrates of the GGPTase I. Cells are treated with a sublethal dose of compound for a period of time which has been established from a kill curve analysis in the appropriate media. After the treatment time, cells are harvested and whole cell extracts (WCE) made, these extracts are then resolved by high speed centrifugation into cytosolic and membrane fractions. Visualisation of the localisation of the MycCaRHO1 is achieved by sodium dodecyl sulfate-polyacrylamide gel electrophoresis (SDS-PAGE) and Western blotting. […]
Cells of strain DIY-BL2-058 were grown overnight in YNB supplemented with 1 μg/ml histidine, 2 μg/ml methionine, 2 μg/ml tryptophan, 200 μg/ml glutamine and 2% glucose at 220 rpm at 31° C. The cell number was then determined, cells were pelleted by centrifugation and resuspended in fresh media at a density of 1×10^7 cells/ml and incubated as above. […]
Fractions were thawed on ice. The protein concentration was determined using the standard Bradford method for the WCEs and cytosolic fraction. […]

Structure (SMILES): CC(C)C[C@H](NC(=O)C1(c2ccccc2)CCN(C(=O)[C@@H](N)CS)CC1)C(=O)N[C@@H](C)C(=O)O [Compound 99a]
- IC50 (C. albicans GGPTase; Table 3 Piperidine Analogs, read-out: IC50 (nM) Ca GG): < 50 nM
- IC50 (C. albicans GGPTase; Table 5, read-out: IC50 (nM) Candida): < 50 nM
- IC50 (human GGTase; Table 3 Piperidine Analogs, read-out: IC50 (nM) Hu GG): > 500 nM
- IC50 (human GGTase; Table 5, read-out: IC50 (nM) Human): > 500 nM
- MFC (C. albicans; read-out: Candida MFC (g/mL)): 2 µg/mL (≈ 4.06 µM)
- MFC (C. albicans; read-out: MFC): 2 µg/mL (≈ 4.06 µM)
- IC50 (H460 Cell Line): > 10000 nM
- IC50 (IMR90 Cell Line): > 10000 nM
- abundance of MycCaRHO1 in the cytosolic fraction (FIG. 57) (MycCaRHO1): increases the abundance of MycCaRHO1 in the cytosolic fraction
